Each structure is given as a SMILES string. Toxic doses and inconclusive results are not listed. Square brackets hold non-standard residues; d marks the D form. Peptide text beside a SMILES is read from it. ξ: configuration not given here. ξLac(3-iPr) = CC(C)CC(O)C(=O)O; NMeV = CN[CH](C(=O)O)C(C)C; NMeA = CN[CH](C)C(=O)O; βAla = NCCC(=O)O

Here are results for 22 compounds from PubChem BioAssay AID330 (DTP/NCI, 2004).

The subject of this assay is P388 leukemia ip, CD2F1 mice, survival T/C. Kind of assay: NCI In Vivo Anticancer Drug Screen. Data for tumor model P388 Leukemia (intraperitoneal) in CD2F1 (CDF1) mice. The note with it: endpoint: median survival time, higher = longer survival. The essentials: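 Mice carrying the transplanted tumor received test compound or vehicle. Survival was recorded in each group, and the value is the treated-group measurement divided by that of the vehicle-treated control group.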

Where [1] appears, read: dose: 50.0 mg/kg/injection, schedule: Q01DX005 (ip), vehicle: Klucel (hydroxypropylcellulose) (HPC).
The mark [2] stands for this setting: dose: 100.0 mg/kg/injection, schedule: Q01DX005 (ip), vehicle: Klucel (hydroxypropylcellulose) (HPC).
Where [3] appears, read: dose: 200.0 mg/kg/injection, schedule: Q01DX005 (ip), vehicle: Klucel (hydroxypropylcellulose) (HPC).
Where [4] appears, read: dose: 50.0 mg/kg/injection, schedule: Q01DX005 (ip), vehicle: saline with Tween-80.
The mark [5] stands for this setting: dose: 100.0 mg/kg/injection, schedule: Q01DX005 (ip), vehicle: saline with Tween-80.
Setting [6] is: dose: 200.0 mg/kg/injection, schedule: Q01DX005 (ip), vehicle: saline with Tween-80.
Where [7] appears, read: dose: 60.0 mg/kg/injection, schedule: Q01DX005 (ip), vehicle: Klucel (hydroxypropylcellulose) (HPC).
Where [8] appears, read: dose: 120.0 mg/kg/injection, schedule: Q01DX005 (ip), vehicle: Klucel (hydroxypropylcellulose) (HPC).
[9] abbreviates: dose: 50.0 mg/kg/injection, schedule: Q01DX009 (ip), vehicle: saline with Tween-80.
[10] abbreviates: dose: 100.0 mg/kg/injection, schedule: Q01DX009 (ip), vehicle: saline with Tween-80.
[11] abbreviates: dose: 50.0 mg/kg/injection, schedule: Q01DX009 (ip), vehicle: Klucel (hydroxypropylcellulose) (HPC).
[12] abbreviates: dose: 100.0 mg/kg/injection, schedule: Q01DX009 (ip), vehicle: Klucel (hydroxypropylcellulose) (HPC).

As to `CC1(C)Cc2c([nH]c3ccccc3c2=O)-c2ccccc21`, the T/C by setting is: under setting [1], 96 % of control; under setting [2], 100 % of control; under setting [3], 103 % of control.
On to `Cc1ccc(N2CC(=O)N3CCCC(C)N3C(=O)C2)cc1` (stereo not drawn), for which the T/C under setting [4] is 99 % of control, the T/C under setting [5] was 99 % of control and the T/C under setting [6] was 99 % of control.
On to `CCOC(=O)C(C)(C)S(=O)(=O)Nc1ccccc1`, for which the T/C runs as follows: under setting [7], 105 % of control; under setting [8], 102 % of control; (dose: 240.0 mg/kg/injection, schedule: Q01DX005 (ip), vehicle: Klucel (hydroxypropylcellulose) (HPC)) 102 % of control.
For `C=Cc1c(C)c2cc3[nH]c(cc4nc(cc5nc(cc1[nH]2)C(C)=C5CCC(=O)OC)C(CCC(=O)OC)=C4C)c(C)c3C#N`, the T/C runs as follows: under setting [1], 107 % of control; under setting [2], 109 % of control; under setting [3], 111 % of control.
Take `N.O=S(=O)(O)O.[Al]`: the T/C is 100 % of control under setting [9] and 100 % of control under setting [10].
`CCOC(=O)C1C(=O)N2C(=O)C(NC(C)=O)=C(O)C2C1c1ccc(C)cc1` (stereo not drawn): the T/C reads like this: (dose: 100.0 mg/kg/injection, schedule: Q04DX002 (ip), vehicle: saline with Tween-80) 100 % of control; (dose: 200.0 mg/kg/injection, schedule: Q04DX002 (ip), vehicle: saline with Tween-80) 100 % of control; (dose: 400.0 mg/kg/injection, schedule: Q04DX002 (ip), vehicle: saline with Tween-80) 104 % of control.
With `COc1cc2ccc(CC(=S)N3CCOCC3)cc2cc1OC`, the T/C by setting is: under setting [10], 90 % of control; (dose: 200.0 mg/kg/injection, schedule: Q01DX009 (ip), vehicle: saline with Tween-80) 90 % of control.
Consider `CNC(=O)O[C@H]1CC[C@@]2(C)C(=CC[C@H]3[C@@H]4CC[C@H]([C@H](C)CCCC(C)C)[C@@]4(C)CC[C@@H]32)C1`, for which the T/C runs as follows: under setting [4], 100 % of control; under setting [5], 96 % of control; under setting [6], 100 % of control.
`CCN(CC)Cc1c[nH]c2ccccc12`: the T/C was 102 % of control (dose: 12.5 mg/kg/injection, schedule: Q01DX009 (ip), vehicle: Klucel (hydroxypropylcellulose) (HPC)); 103 % of control (dose: 25.0 mg/kg/injection, schedule: Q01DX009 (ip), vehicle: Klucel (hydroxypropylcellulose) (HPC)); 97 % of control under setting [11].
On to `COC(=O)/C=C1/Nc2ccc(Cl)cc2C(=O)NC1=O`, for which the T/C runs as follows: (dose: 60.0 mg/kg/injection, schedule: Q01DX005 (ip), vehicle: saline with Tween-80) 95 % of control; (dose: 120.0 mg/kg/injection, schedule: Q01DX005 (ip), vehicle: saline with Tween-80) 93 % of control; (dose: 240.0 mg/kg/injection, schedule: Q01DX005 (ip), vehicle: saline with Tween-80) 93 % of control.
In the case of `CCC(C)C1NC(=O)C2CCCN2C(=O)C(CC(C)C)OC(=O)CCNC(=O)C(C)N(C)C(=O)C(C(C)C)N(C)C1=O` (stereo not drawn) (cyclo([ξLac(3-iPr)]PI[NMeV][NMeA][βAla]); configuration not given here), the T/C is 115 % of control (dose: 0.63 mg/kg/injection, schedule: Q01DX009 (ip), vehicle: saline); 113 % of control (dose: 1.25 mg/kg/injection, schedule: Q01DX009 (ip), vehicle: saline); 117 % of control (dose: 2.5 mg/kg/injection, schedule: Q01DX009 (ip), vehicle: saline); 123 % of control (dose: 5.0 mg/kg/injection, schedule: Q01DX005 (ip), vehicle: saline with Tween-80); 120 % of control (dose: 5.0 mg/kg/injection, schedule: Q01DX009 (ip), vehicle: saline); 119 % of control (dose: 10.0 mg/kg/injection, schedule: Q01DX005 (ip), vehicle: saline with Tween-80).
With `C[n+]1c(-c2cc(C(F)(F)F)cc(C(F)(F)F)c2)c2cc(N)ccc2c2ccc(N)cc21`, the T/C (dose: 2.5 mg/kg/injection, schedule: Q01DX009 (ip), vehicle: water) was 110 % of control; the T/C (dose: 5.0 mg/kg/injection, schedule: Q01DX009 (ip), vehicle: water) is 115 % of control; the T/C (dose: 10.0 mg/kg/injection, schedule: Q01DX009 (ip), vehicle: water) was 118 % of control; the T/C (dose: 12.5 mg/kg/injection, schedule: Q01DX009 (ip), vehicle: saline with Tween-80) is 158 % of control; the T/C (dose: 20.0 mg/kg/injection, schedule: Q01DX009 (ip), vehicle: water) is 152 % of control; the T/C (dose: 25.0 mg/kg/injection, schedule: Q01DX009 (ip), vehicle: saline with Tween-80) was 166 % of control. Also, the T/C under setting [9] was 196 % of control and the T/C (dose: 80.0 mg/kg/injection, schedule: Q01DX009 (ip), vehicle: water) is 111 % of control.
As to `CSC(=S)NS(=O)(=O)c1cccs1`, the T/C is 98 % of control under setting [11] and 91 % of control under setting [12].
In the case of `O=CNNc1ccc2nnc(Cl)n2n1`, the T/C by setting is: (dose: 100.0 mg/kg/injection, schedule: Q04DX003 (ip), vehicle: saline) 101 % of control; (dose: 200.0 mg/kg/injection, schedule: Q04DX003 (ip), vehicle: saline) 97 % of control; (dose: 400.0 mg/kg/injection, schedule: Q04DX003 (ip), vehicle: saline) 93 % of control.
`Clc1cccc2c(SCCCCCCSc3c4ccccc4nc4c(Cl)cccc34)c3ccccc3nc12`: the T/C is 92 % of control under setting [7] and 88 % of control under setting [8].
Turning to `CC1CC(c2ccc3ccccc3c2)NCCNC(c2ccc3ccccc3c2)CC(C)NCCN1` (stereo not drawn), the T/C was 100 % of control (dose: 0.09 mg/kg/injection, schedule: Q01DX009 (ip), vehicle: saline); 103 % of control (dose: 0.18 mg/kg/injection, schedule: Q01DX009 (ip), vehicle: saline); 102 % of control (dose: 0.36 mg/kg/injection, schedule: Q01DX009 (ip), vehicle: saline); 101 % of control (dose: 3.12 mg/kg/injection, schedule: Q01DX009 (ip), vehicle: saline); 101 % of control (dose: 12.5 mg/kg/injection, schedule: Q01DX009 (ip), vehicle: saline).
On to `CC1(C)OC(COCCOCCOCCCC#N)C(COCCOCCOCCCC#N)O1` (stereo not drawn), for which the T/C runs as follows: (dose: 25.0 mg/kg/injection, schedule: Q01DX005 (ip), vehicle: saline) 100 % of control; (dose: 50.0 mg/kg/injection, schedule: Q01DX005 (ip), vehicle: saline) 103 % of control; (dose: 100.0 mg/kg/injection, schedule: Q01DX005 (ip), vehicle: saline) 107 % of control; (dose: 200.0 mg/kg/injection, schedule: Q01DX005 (ip), vehicle: saline) 98 % of control.
Regarding `Nc1cccc(C(=O)Nc2ccc3c(O)c(N=Nc4ccccc4)c(S(=O)(=O)O)cc3c2)c1`, the T/C reads like this: under setting [1], 103 % of control; under setting [2], 107 % of control; under setting [3], 103 % of control.
On to `O=P(O)(O)SP(=O)(O)O.[Mn]`, for which the T/C is, setting by setting: (dose: 100.0 mg/kg/injection, schedule: Q04DX003 (ip), vehicle: Klucel (hydroxypropylcellulose) (HPC)) 105 % of control; (dose: 200.0 mg/kg/injection, schedule: Q04DX003 (ip), vehicle: Klucel (hydroxypropylcellulose) (HPC)) 110 % of control; (dose: 400.0 mg/kg/injection, schedule: Q04DX003 (ip), vehicle: Klucel (hydroxypropylcellulose) (HPC)) 119 % of control.
For `O=C(Nc1ccc(NC(=O)Nc2cccc(C3=NCCCN3)c2)cc1)Nc1ccc(C2=NCCCN2)cc1`, the T/C runs as follows: (dose: 2.5 mg/kg/injection, schedule: Q01DX009 (ip), vehicle: saline with Tween-80) 113 % of control; (dose: 5.0 mg/kg/injection, schedule: Q04DX003 (ip), vehicle: saline with Tween-80) 100 % of control; (dose: 10.0 mg/kg/injection, schedule: Q04DX003 (ip), vehicle: saline with Tween-80) 109 % of control.
Turning to `COc1ccc2c(c1OC)C1=C(C2=O)c2cc3c(cc2CCN1)OCO3`, the T/C (dose: 50.0 mg/kg/injection, schedule: Q01DX005 (ip), vehicle: saline + Tween-80 + alcohol) is 102 % of control; the T/C (dose: 100.0 mg/kg/injection, schedule: Q01DX005 (ip), vehicle: saline + Tween-80 + alcohol) was 100 % of control; the T/C (dose: 200.0 mg/kg/injection, schedule: Q01DX005 (ip), vehicle: saline + Tween-80 + alcohol) is 102 % of control.
Turning to `O=C(c1ccccc1)C1OC1C(=O)c1ccccc1` (stereo not drawn), the T/C reads like this: under setting [11], 95 % of control; under setting [12], 100 % of control; (dose: 200.0 mg/kg/injection, schedule: Q01DX009 (ip), vehicle: Klucel (hydroxypropylcellulose) (HPC)) 102 % of control.
